Test results reported in patent publication US4186136A, “Novel benzothienyl amino (propyl and butyl) ketones, a method of preparation thereof and their application to therapeutics” (priority 1975, dated 1980).
Where a name gives a salt, the structure may show the parent alone.

What was measured:
[1] = tested on: human blood-plaques (aggregation with collagene); assay: Inhibition of blood-plaque aggregation induced by collagene; type: cell-based; conditions: for Inhibitory activity of the blood-plaque aggregation, COLLAGENE, a (X) / inhibition at 20 µg/mL: C (X)=2×10^-5 g/ml; for Ratio of a (X) to a (R), COLLAGENE (head drawn): X 2×10^-5 g/ml, R 2×10^-4 g/ml; for inhibition at 20 µg/mL: Homo sapiens, read-out: Inhibitory activity of the blood-plaque aggregation, COLLAGENE, a (X)
Text: (§1) The blood plaques used for these studies were human blood-plaques introduced into the test in the form of blood-plaque rich plasmas (B.P.R.P.).
(§2) These latter were obtained as water-repellent material by slow centrifugation from human blood samples.
(§3) The study of blood-plaque aggregation was made by means of an aggregate-meter with continuous agitation and graphic recording according to the conventional method. (PROST R. S., SOUVERAIN C. H., DOUMENC J., Etude de l'agregation plaquettaire a l'aide de l'agregametre de MUSTARD-Coagulation, 1971, 4, 2, 145-151).
(§4) The agents employed for inducing aggregation were diphosphoric adenosine acid (D.P.A.), 1-(3',4'-di-hydroxyphenyl)-2-methylamino ethanol (adrenaline) and collagene. All these reactants were prepared from mother solutions diluted in a Michaelis' buffer. Their concentration in the test may vary according to the affinity of the blood-plaques.
(§5) An optimum concentration is thus sought by successive tests on the same B.P.R.P.
(§6) The inhibitory activity on the aggregation was evaluated by addition of the product under study to the B.P.R.P. before introduction of the aggregating agent.
(§7) The concentrations of compounds of formula I (X) in the B.P.R.P. are: C (X)=2.5×10^-5 g/ml for aggregation with D.P.A. and adrenaline, and C (X)=2×10^-5 g/ml for collagene.
(§8) The reference product (R) is 2,6-bis (diethanolamino)-4,8-dipiperidinopyrimido[5,4-d]pyramidine (known under the trademark "Dipyridamole") used in the concentration C (R)=5×10^-4 g/ml for aggregation with D.P.A. and adrenaline and C (R)=2×10^-4 g/ml for aggregation with collagene.
(§9) The following table IV indicates the activity of some compounds of formula I: a (X) the activity of the reference product: a (R) and the different values of the ratio: [formula]

[2] = tested on: isolated heart of a gumea-pig; assay: Vaso-dilatatory activity, coronary flow of isolated perfused heart
Experimental: The coronary flow is recorded, by means of an electronic device fitted with a Fleish totaliser, before and after addition of the substance X under study (concentration: 1×10^-5 g/ml), the reference product (R) being 2,6-bis (diethanolamino) 4,8-dipiperidinopyrimido[5,4-d]pyrimidine (known under the trademark "Dipyridamole") used at a concentration of 1×10^-5 g/ml.
The percentage flow increase P was calculated at the climax of the activity of X or R.

[3] = tested on: human blood-plaques (aggregation with adrenaline); assay: Inhibition of blood-plaque aggregation induced by adrenaline; type: cell-based; conditions: for inhibition at 25 µg/mL: Homo sapiens, C (X)=2.5×10^-5 g/ml, read-out: Inhibitory activity of the blood-plaque aggregation, ADRENALINE, a (X); for Ratio of a (X) to a (R), ADRENALINE (head drawn): X 2.5×10^-5 g/ml, R 5×10^-4 g/ml
Text: as §1, §2, §3, §4, §5, §6, §7, §8, §9

[4] = Acute toxicity, oral, mouse (LD 50, Miller and Tainter); type: in vivo; conditions: in vivo, po, death rate checked for seven days, read-out: 50% lethal dose (LD 50) (converted)
Experimental: The acute toxicity of the compounds of formula (I) were evaluated orally (esophagean probe) on a mouse deprived of food 18 hours before the beginning of the test. The products were placed in suspension in a solution of dilute carboxymethyl cellulose. Calculation of the 50 lethal dose (LD 50) was effected according to the method of Miller and Tainter (Miller L. C., Tainter M. L., Proc. Soc. Exptl. Biol. Med. 1944, 57, 261-264).
The death rate was checked for seven days following the treatment.
Table III gives the 50% lethal doses (LD 50) in milligrammes per kilogramme body weight.

[5] = tested on: human blood-plaques (aggregation with D.P.A.); assay: Inhibition of blood-plaque aggregation induced by D.P.A.; type: cell-based; conditions: for Ratio of a (X) to a (R), D.P.A. (head drawn): X 2.5×10^-5 g/ml, R 5×10^-4 g/ml; for inhibition at 25 µg/mL: Homo sapiens, C (X)=2.5×10^-5 g/ml, read-out: Inhibitory activity of the blood-plaque aggregation, D.P.A., a (X)
Text: as §1, §2, §3, §4, §5, §6, §7, §8, §9

rat's isolated duodenum = assay: Spasmolytic activity on isolated duodenum contracted by barium chloride (Magnus); conditions: for ED 50 (R) / ED 50 (X): relative to papaverine hydrochloride
Experimental: The spasmolytic activity was studied on a rat's isolated duodenum maintained in a survival medium of an aerated Tyrode solution heated to 38° C. according to the technique of Magnus (Magnus R.-Archivs ges. Physiol., 1905, 180, 1-71).
The contracting agent used was barium chloride, the reference antogonist agent being papaverine hydrochloride (R). The average activity of the compounds of formula I (X) in comparison with that of the reference agent was expressed by calculating the ratio of the 50 efficient doses (ED 50) determined graphically on logarithmic paper: [formula]
For example: a substance having a relative activity expressed by the FIG. 2 presents an activity equal to twice that of papaverine hydrochloride.

[6] = tested on: phenylparaquinone (P.P.Q.) painful syndrome in a mouse; assay: Analgesic and anti-inflammatory activity, phenylparaquinone (P.P.Q.) painful syndrome; type: in vivo; conditions: for Analgesic and anti-inflammatory activity, percentage activity a(X): 50 mg/kg digestively, crises between 10 and 15 minutes; for a(X) / a(R), analgesic and anti-inflammatory activity: X 50 mg/kg, R (Galfenine) 25 mg/kg
Experimental: The intraperitoneal injection of phenylparaquinone (P.P.Q.) in a mouse causes the appearance of a painful syndrome appearing within 5 minutes of the injection and disappearing after about 30 minutes (SIEGMUND E. A., CADMUS A., LU G., J. Pharmacol. Exp. Therap. 1957, 119, 453). This painful syndrome manifests itself in the animal by a series of characteristic crises, more or less close together and fleeting, during which we can note a twisting or stretching of the body, a hollowing of the sides and a stretching of the hind legs.
It is therefore possible to note the number of crises in a given interval of time.
The preventive administration of analgesic or anti-inflammatory substances prevents the appearance of crises or reduces the frequency thereof.
The reference substance (R) used in the tests was the ester of N-(7-chloro-4 quinolyl) anthranilic acid and 2,3-dihydroxy n.propanol (known under the trademark Galfenine).
It was administered orally with a dose of 25 mg/kg.
The compounds of formula I (X) were administered digestively with a dose of 50 mg/kg.
The interval of time (t) which was chosen to evaluate the analgesic activity was between 10 and 15 minutes which is the period of maximum frequency of the crises. This activity was expressed in the following way:
n: number of crises observed in the control mice;
n': number of crises observed in mice previously treated with the reference substance (R);
n": number of crises observed in mice having received the substance (X).
The percentage activity of R is equal to [formula]
The percentage activity of X is equal to [formula]
The activity of X in relation to that of R is estimated by the ratio [formula]
For example: a compound X for which [formula] is 0.5 has an activity equal to half that of the reference product.

| IC50 (rat's isolated duodenum; Rattus norvegicus, barium chloride contraction, Tyrode, 38° C., read-out: Spasmolytic activity ED 50 (X)) [µg/mL] | SMILES | Inhibitory activity of the blood-plaque aggregation, COLLAGENE, a (X) [1] [%] | Ratio of a (X) to a (R), COLLAGENE (head drawn) [1] | activation at 10 µg/mL ([2]; 1×10^-5 g/ml, coronary flow at climax of activity, Locke, 37° C., read-out: Percentage flow increase P (X)) [%] | P (X) / P (R) ([2]; relative to Dipyridamole, both 1×10^-5 g/ml) | inhibition at 25 µg/mL [3] [%] | Ratio of a (X) to a (R), ADRENALINE (head drawn) [3] | LD50 at 168 h [4] [mg/kg] | inhibition at 20 µg/mL [1] [%] | Ratio of a (X) to a (R), D.P.A. (head drawn) [5] | inhibition at 25 µg/mL [5] [%] | ED 50 (R) / ED 50 (X) (rat's isolated duodenum) | Analgesic and anti-inflammatory activity, percentage activity a(X) [6] [%] | a(X) / a(R), analgesic and anti-inflammatory activity [6] |
| --- | --- | --- | --- | --- | --- | --- | --- | --- | --- | --- | --- | --- | --- | --- |
| – | O=C(CCCN1CCOCC1)c1cc2ccccc2s1 [Compound 1, 1-(benzothien-2'-yl)-4-N-morpholino butanone] | 12 | 3.3×10^-1 | 28 | 6.5 × 10^-1 | 9 | 1×10^-1 | 1200 | – | – | – | – | – | – |
| 1.2 | C=CCN(CC=C)CCCC(=O)c1cc2ccccc2s1 [Compound 3, 1-(benzothien-2'-yl)-4-N,N-diallylamino butanone oxalate] | – | 1.95×10^-1 | – | – | – | – | – | 13 | 1.7×10^-1 | 15 | 2.08 | – | – |
| – | CN(C)CCCC(=O)c1cc2ccccc2s1 [Compound 4] | – | 4.5×10^-1 | – | – | 78 | 1 | 950 | 39 | – | – | – | – | – |
| – | O=C(CCCN1CCCCC1)c1cc2ccccc2s1 [Compound 5] | – | 1.4×10^-1 | – | – | 84 | 1.1 | 1300 | 12 | 1.5×10^-1 | 8 | – | – | – |
| – | O=C(CCCN1CCOCC1)c1cc2ccccc2s1 [Compound 6] | 32 | 3.5×10^-1 | – | – | – | – | – | – | 1.7×10^-1 | 15 | – | 55 | 7 × 10^-1 |
| – | CCN(CC)CCCC(=O)c1csc2ccccc12 [Compound 9] | – | 3×10^-1 | – | – | 86 | 1 | > 1200 | 16 | 1.9×10^-1 | 15 | 8.10 | 47 | 1 |
